Patent US6350879B1, “Benziso-N (L-histidine methylester)-thiazolone, process for the preparation thereof, and use thereof for RNA polymerase inhibition” (Council of Scientific and Industrial Research, priority 2000, dated 2002)

Experiments:
E. coli RNA polymerase = E. coli RNA polymerase (Escherichia coli, UniProt P0A8T7); assay: RNA polymerase inhibition, radioisotope (3H UTP) labelling transcription assay with calf thymus DNA; assay type: biochemical; settings: 0.8 μM of 3 with 0.4 μM E. coli RNA polymerase, incubated 15 min, dialysed overnight; native enzyme count = 100%
Description: In a typical experiment, the course of transcription of calf thymus DNA by E. coli RNA polymerase was monitored in the presence and absence of the redox system 3. The enzyme aliquot after admixing with 3 was incubated for 15 minutes and then dialyzed overnight. A general transcription assay was then carried out in a medium, which contained ^3H UTP in addition to other nucleotides. The amount of radioactive UTP (uridine triphaspate) incorporated in the transcribed RNA was monitored by scintillation counter and the count, when compared to that obtained on using native enzyme gave the percentage loss of activity.
A mixture containing 0.8 μM solution of 3 (5 μL from 8 μM stock in methanol) and 0.4 μM of E. coli RNA polymerase (5 μl from 4 μM stock) in 1×transcription buffer ^a (5 μL) and 35 μL of milliQ water was incubated for 15 min, and dialysed ^b overnight, 4×Transcription assay mixture ^c (10 μL) was diluted with 10 μL of milliQ water and admixed with 20 μL of treated and dialyzed enzyme. The mixture was incubated for 20 minutes and spotted on to a DE81 filter paper strip ^d, which was pre-coated with EDTA to arrest further transcription. The filter paper strips were allowed to air dry for three hours, washed successively with 5% Na2HPO4 solution (3×200 mL, 10 min. each), distilled water (2×200 mL, 5 min. each) and then with ethanol (2×75 mL). […]

[1] = Stability at normal conditions; assay type: physicochemical

E. coli RNA polymerase, sequence (P0A8T7 whole entry): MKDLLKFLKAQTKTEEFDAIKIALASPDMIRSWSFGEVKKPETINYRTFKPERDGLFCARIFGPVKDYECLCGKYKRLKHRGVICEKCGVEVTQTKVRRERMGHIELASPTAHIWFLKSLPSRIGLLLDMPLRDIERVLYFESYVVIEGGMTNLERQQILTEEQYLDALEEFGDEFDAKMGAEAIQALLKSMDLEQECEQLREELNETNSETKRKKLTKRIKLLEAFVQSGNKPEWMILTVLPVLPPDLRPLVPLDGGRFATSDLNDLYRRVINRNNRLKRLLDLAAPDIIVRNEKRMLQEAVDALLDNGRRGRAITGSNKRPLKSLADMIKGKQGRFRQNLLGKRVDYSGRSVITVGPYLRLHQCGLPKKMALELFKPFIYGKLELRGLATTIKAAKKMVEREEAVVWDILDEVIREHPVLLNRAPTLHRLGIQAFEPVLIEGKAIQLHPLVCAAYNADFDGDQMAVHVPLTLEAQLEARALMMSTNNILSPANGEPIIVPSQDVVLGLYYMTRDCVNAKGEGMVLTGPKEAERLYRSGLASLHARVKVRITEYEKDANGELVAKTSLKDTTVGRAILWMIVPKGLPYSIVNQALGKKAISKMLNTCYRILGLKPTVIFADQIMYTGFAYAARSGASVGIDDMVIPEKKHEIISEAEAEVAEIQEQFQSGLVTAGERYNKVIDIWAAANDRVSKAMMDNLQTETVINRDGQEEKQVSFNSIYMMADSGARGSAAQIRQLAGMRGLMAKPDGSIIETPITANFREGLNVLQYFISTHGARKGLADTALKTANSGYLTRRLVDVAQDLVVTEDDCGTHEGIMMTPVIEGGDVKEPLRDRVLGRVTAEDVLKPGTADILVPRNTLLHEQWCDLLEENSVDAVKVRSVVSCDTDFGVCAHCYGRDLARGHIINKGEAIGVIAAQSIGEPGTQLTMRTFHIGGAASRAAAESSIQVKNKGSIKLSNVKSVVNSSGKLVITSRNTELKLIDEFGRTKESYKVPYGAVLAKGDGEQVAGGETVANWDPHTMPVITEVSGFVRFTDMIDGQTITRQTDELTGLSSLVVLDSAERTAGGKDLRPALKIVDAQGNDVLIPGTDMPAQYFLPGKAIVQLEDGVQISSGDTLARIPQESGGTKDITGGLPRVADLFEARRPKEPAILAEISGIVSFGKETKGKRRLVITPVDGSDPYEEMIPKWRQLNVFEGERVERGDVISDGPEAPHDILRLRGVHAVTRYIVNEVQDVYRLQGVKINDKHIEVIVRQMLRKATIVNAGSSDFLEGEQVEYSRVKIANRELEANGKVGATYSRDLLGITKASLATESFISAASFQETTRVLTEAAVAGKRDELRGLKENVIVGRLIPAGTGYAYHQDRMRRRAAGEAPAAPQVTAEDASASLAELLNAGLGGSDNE
E. coli RNA polymerase, sequence (P0A8V2 whole entry partner): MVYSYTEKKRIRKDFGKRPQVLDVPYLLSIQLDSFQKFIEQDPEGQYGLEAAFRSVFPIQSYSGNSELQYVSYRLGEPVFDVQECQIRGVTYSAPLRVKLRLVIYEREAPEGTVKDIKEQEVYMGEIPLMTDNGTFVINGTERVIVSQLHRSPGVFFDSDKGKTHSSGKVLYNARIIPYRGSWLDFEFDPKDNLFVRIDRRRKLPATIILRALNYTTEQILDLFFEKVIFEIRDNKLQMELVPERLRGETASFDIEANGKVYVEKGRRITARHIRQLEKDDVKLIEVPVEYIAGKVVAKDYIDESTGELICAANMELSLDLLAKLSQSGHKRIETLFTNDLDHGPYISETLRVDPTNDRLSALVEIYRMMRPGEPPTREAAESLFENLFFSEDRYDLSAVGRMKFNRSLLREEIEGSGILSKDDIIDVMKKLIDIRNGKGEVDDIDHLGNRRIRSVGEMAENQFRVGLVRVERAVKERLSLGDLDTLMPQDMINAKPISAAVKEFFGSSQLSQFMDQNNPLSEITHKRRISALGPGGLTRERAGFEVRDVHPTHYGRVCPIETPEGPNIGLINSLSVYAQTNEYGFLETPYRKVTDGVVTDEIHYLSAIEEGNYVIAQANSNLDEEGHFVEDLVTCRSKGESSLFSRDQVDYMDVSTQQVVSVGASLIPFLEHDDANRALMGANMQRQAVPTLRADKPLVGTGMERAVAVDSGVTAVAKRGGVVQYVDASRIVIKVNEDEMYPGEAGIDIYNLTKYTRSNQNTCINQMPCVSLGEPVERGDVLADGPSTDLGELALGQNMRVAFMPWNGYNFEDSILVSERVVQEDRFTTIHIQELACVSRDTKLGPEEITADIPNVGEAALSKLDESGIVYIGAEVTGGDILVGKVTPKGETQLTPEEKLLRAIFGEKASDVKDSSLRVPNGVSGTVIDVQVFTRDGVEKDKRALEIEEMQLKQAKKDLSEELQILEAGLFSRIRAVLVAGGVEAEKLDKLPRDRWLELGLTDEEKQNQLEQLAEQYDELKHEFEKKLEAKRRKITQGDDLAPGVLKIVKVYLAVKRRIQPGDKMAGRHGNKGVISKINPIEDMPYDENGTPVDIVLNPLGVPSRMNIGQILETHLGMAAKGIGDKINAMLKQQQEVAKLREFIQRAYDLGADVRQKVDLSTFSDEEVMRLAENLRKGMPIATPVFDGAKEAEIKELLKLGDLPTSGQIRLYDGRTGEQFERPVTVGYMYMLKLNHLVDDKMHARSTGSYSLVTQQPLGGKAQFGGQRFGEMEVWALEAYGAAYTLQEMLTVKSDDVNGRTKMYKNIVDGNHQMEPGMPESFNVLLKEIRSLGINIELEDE
E. coli RNA polymerase, sequence (P0A7Z4 whole entry partner): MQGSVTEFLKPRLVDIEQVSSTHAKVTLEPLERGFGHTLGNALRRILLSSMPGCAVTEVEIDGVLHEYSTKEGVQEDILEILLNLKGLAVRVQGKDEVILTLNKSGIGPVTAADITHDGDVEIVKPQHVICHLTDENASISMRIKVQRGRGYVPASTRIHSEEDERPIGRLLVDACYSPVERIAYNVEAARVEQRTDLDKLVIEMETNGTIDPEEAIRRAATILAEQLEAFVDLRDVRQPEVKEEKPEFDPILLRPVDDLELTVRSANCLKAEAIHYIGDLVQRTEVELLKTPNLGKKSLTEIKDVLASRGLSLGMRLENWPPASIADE
E. coli RNA polymerase, sequence (P00579 whole entry partner): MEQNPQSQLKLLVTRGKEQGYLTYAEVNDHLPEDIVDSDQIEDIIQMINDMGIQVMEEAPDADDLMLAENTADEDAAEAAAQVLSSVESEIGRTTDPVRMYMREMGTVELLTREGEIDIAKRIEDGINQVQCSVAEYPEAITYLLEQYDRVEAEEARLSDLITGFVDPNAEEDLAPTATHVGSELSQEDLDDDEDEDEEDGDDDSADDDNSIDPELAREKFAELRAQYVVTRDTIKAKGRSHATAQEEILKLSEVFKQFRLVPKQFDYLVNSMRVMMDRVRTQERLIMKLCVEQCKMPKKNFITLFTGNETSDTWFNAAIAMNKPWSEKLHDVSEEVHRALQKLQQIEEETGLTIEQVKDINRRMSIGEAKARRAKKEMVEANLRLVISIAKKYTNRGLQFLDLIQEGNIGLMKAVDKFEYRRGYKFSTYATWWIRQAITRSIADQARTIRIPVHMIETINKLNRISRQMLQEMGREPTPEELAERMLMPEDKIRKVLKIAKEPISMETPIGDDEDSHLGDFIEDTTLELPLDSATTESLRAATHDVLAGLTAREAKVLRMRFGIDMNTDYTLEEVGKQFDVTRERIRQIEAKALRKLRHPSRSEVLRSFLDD

COC(=O)C(Cc1cnc[nH]1)n1sc2ccccc2c1=O [compound 3, benziso-N(L-histidine methylester)-thiazolone]
activity compared to the native enzyme (E. coli RNA polymerase): 53% | inhibition of activity (E. coli RNA polymerase): 47% | stability [1]: stable at normal conditions
